Drawing on article PMC6274539, “Photoactivatable Caged Prodrugs of VEGFR-2 Kinase Inhibitors” (Molecules, 2016), this text covers remaining activity, GI50 and IC50 for two compounds.

Structures are written as SMILES. Like-named read-outs stand apart in the source and are kept apart here.

A word on the GI50: it is the concentration at which growth is held to half of that of the control. The IC50 is the concentration at which inhibition is half-maximal.

In one assay the target is SmMLCK (Homo sapiens, UniProt Q15746). As to the kind of experiment: kinase profiling, radioactive filter binding assay. Conditions: 0.1 µM compound, assay duplicates; read-out: residual activity of SmMLCK, mean percentage activity. The format is biochemical. How it is done:
(§1) To compare the active inhibitors 1 and 3, a selectivity profile over 79 kinases was recorded. The residual kinase activities are presented as a heatmap (Figure 6, for raw data see Supplementary Table S1).
(§2) Compounds 1 and 3 were screened against 79 kinases. The used method was a radioactive filter binding assay using ^33P ATP, for details see references. The substances were dissolved in DMSO at tested concentration of 0.1 µM. The mean percentage residual kinase activity and standard deviations of assay duplicates were determined. Analyses were performed by the International Center for Kinase Profiling at the University of Dundee, UK.

For the next assay, the target named is PLK1 (Okadaic Acid) (Homo sapiens, UniProt P53350). As to the kind of experiment: kinase profiling, radioactive filter binding assay. It counts as biochemical. Conditions: 0.1 µM compound, assay duplicates; read-out: residual activity of PLK1 (Okadaic Acid), mean percentage activity. The protocol: as §1, §2
In another assay the test system is PC-3 cells. As to the kind of experiment: cellular growth (proliferation) assay, resazurin. It counts as cell-based. How it is done: Growth assays on VEGFR-2 dependent PC-3 cells were performed.
PC-3 cells were purchased from CLS Cell Lines Service GmbH (Eppelheim, Germany). The cells were grown in DMEM:Hams F12 (1:1) medium with 5% FCS. PC-3 cells were incubated in a 5% CO2 humidified atmosphere at 37 °C.
The cells were grown in cell flasks until approximately 90% confluence and then seeded to give 13000 cells in 100 μL per well into 96-well CulturePlates™ (Perkin Elmer). In addition to the test plates, one plate was prepared for reference measurement at day zero. All plates were incubated for 24 h at 37 °C in a humidified atmosphere with 5% CO2. Compounds 1, 3, 4, and 5 were dissolved in 100% DMSO (v/v) and added to the test plates. The final DMSO concentration in the assay was 0.5% (v/v). Viability of the cells in the day zero control plates were determined on the same day without adding any compounds. For viability measurement the resazurin assay was used. The shift in the fluorescence signal was measured at the LS55 Fluorescence spectrometer (Perkin Elmer). For the photoactivation experiments the test plates were irradiated at 365 nm for 5 min (LED source: 8× Nichia NCSU033B, Sahlmann Photochemical Solutions, 50%, 1.1 kW/m^2). Test plates were incubated for further 48 h and cell viability was defined as described above. Measured raw data was converted into percent of cell growth by using the high control (0.5% DMSO (v/v) without compound) and the day zero control. For dose-response studies, 11 different concentrations of compounds were tested in duplicates. IC50 values were calculated using the 4-parameter logarithmic fit option of GraphPad Prism 5.

For another assay, the target named is T1, VEGFR-2 (Homo sapiens, UniProt P35968).
T1 construct: determined using VEGFR-2 protein kinase by a radiometric ^33PanQinase® assay; purchased ProQinase (Freiburg, Germany)
Briefly: radiometric 33PanQinase VEGFR-2 kinase assay (ProQinase). The format is biochemical. Conditions: 10 semi-log concentrations, single samples, 1% DMSO. How it is done: As predicted by molecular modeling, insertion of the protecting group DMNB should diminish the inhibitory activity both of the maleimide 1 and the carbazole 3. […] The IC50 values towards VEGFR-2 were determined (Table 1).
The VEGFR-2 IC50 profile for 1, 3, 4 and 5 was determined using VEGFR-2 protein kinase by a radiometric ^33PanQinase® assay. […] Prior to testing, the compounds were dissolved to prepare 1 × 10^−2 M stock solutions in 100% DMSO. The final DMSO concentration in the reaction cocktails was 1% in all cases. Analyses were performed by ProQinase (Freiburg, Germany).

The target in the next assay is Src (Homo sapiens, UniProt P12931). As to the kind of experiment: kinase profiling, radioactive filter binding assay. Conditions: 0.1 µM compound, assay duplicates; read-out: residual activity of Src, mean percentage activity. It counts as biochemical. How it is done:
(§3) The used method was a radioactive filter binding assay using ^33P ATP, for details see references. The substances were dissolved in DMSO at tested concentration of 0.1 µM. The mean percentage residual kinase activity and standard deviations of assay duplicates were determined. Analyses were performed by the International Center for Kinase Profiling at the University of Dundee, UK.

In a further assay the target is TBK1 (Homo sapiens, UniProt Q9UHD2). As to the kind of experiment: kinase profiling, radioactive filter binding assay. The format is biochemical. Conditions: 0.1 µM compound, assay duplicates; read-out: residual activity of TBK1, mean percentage activity. The protocol: as §3
Another assay concerns the target CSK (Homo sapiens, UniProt P41240). As to the kind of experiment: kinase profiling, radioactive filter binding assay. As to conditions: 0.1 µM compound, assay duplicates; read-out: residual activity of CSK, mean percentage activity. It counts as biochemical. The protocol:
as §3

For another assay, the target named is CK2 (Homo sapiens, UniProt P68400). As to the kind of experiment: kinase profiling, radioactive filter binding assay. It counts as biochemical. Conditions: 0.1 µM compound, assay duplicates; read-out: residual activity of CK2, mean percentage activity. The protocol:
as §3

The next assay has as its target GSK3b (Homo sapiens, UniProt P49841). Briefly: kinase profiling, radioactive filter binding assay. The format is biochemical. As to conditions: 0.1 µM compound, assay duplicates; read-out: residual activity of GSK3b, mean percentage activity. How it is done:
as §3

The target in the next assay is BTK (Homo sapiens, UniProt Q06187). Briefly: kinase profiling, radioactive filter binding assay. The format is biochemical. Conditions: 0.1 µM compound, assay duplicates; read-out: residual activity of BTK, mean percentage activity. How it is done: as §3
For another assay, the target named is ERK1 (Homo sapiens, UniProt P27361). As to the kind of experiment: kinase profiling, radioactive filter binding assay. The format is biochemical. As to conditions: 0.1 µM compound, assay duplicates; read-out: residual activity of ERK1, mean percentage activity. How it is done:
as §3

A further assay concerns the target p38g MAPK (Homo sapiens, UniProt P53778). Briefly: kinase profiling, radioactive filter binding assay. It counts as biochemical. As to conditions: 0.1 µM compound, assay duplicates; read-out: residual activity of p38g MAPK, mean percentage activity. The protocol:
as §3

A further assay concerns the target BRSK2 (Homo sapiens, UniProt Q8IWQ3). Briefly: kinase profiling, radioactive filter binding assay. The format is biochemical. As to conditions: 0.1 µM compound, assay duplicates; read-out: residual activity of BRSK2, mean percentage activity. How it is done:
as §3

A further assay deals with PKBb (Homo sapiens, UniProt P31751). Briefly: kinase profiling, radioactive filter binding assay. The format is biochemical. Conditions: 0.1 µM compound, assay duplicates; read-out: residual activity of PKBb, mean percentage activity. The protocol:
as §3

A further assay addresses PKD1 (Homo sapiens, UniProt Q15139). Briefly: kinase profiling, radioactive filter binding assay. It counts as biochemical. As to conditions: 0.1 µM compound, assay duplicates; read-out: residual activity of PKD1, mean percentage activity. The protocol: as §3
The next assay concerns the target PAK4 (Homo sapiens, UniProt O96013). Briefly: kinase profiling, radioactive filter binding assay. It counts as biochemical. Conditions: 0.1 µM compound, assay duplicates; read-out: residual activity of PAK4, mean percentage activity. How it is done: as §3
The target of the next assay is SYK (Homo sapiens, UniProt P43405). Briefly: kinase profiling, radioactive filter binding assay. The format is biochemical. As to conditions: 0.1 µM compound, assay duplicates; read-out: residual activity of SYK, mean percentage activity. The protocol: as §3
Setting [1] is: Homo sapiens, PC-3, light or radiation study, 48 h, no UV irradiation, cell growth after 48 h, read-out: GI50 without Irradiation.
[2] abbreviates: Homo sapiens, PC-3, light or radiation study, irradiated at 365 nm, 5 min, 1.1 kW/m^2, cell growth after 48 h, read-out: GI50 after Irradiation.

GSK3b, sequence (P49841 whole entry): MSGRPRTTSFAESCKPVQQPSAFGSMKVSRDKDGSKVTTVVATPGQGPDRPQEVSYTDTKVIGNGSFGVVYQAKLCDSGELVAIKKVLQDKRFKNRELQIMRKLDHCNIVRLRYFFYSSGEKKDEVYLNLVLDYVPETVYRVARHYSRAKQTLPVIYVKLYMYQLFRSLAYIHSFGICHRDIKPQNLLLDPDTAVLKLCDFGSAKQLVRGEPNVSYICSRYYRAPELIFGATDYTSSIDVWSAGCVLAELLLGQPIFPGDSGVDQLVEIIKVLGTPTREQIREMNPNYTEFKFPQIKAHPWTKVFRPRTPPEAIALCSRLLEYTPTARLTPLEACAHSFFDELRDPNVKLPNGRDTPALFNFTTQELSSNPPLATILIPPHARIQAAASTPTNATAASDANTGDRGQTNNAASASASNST
PKBb, sequence (P31751 whole entry): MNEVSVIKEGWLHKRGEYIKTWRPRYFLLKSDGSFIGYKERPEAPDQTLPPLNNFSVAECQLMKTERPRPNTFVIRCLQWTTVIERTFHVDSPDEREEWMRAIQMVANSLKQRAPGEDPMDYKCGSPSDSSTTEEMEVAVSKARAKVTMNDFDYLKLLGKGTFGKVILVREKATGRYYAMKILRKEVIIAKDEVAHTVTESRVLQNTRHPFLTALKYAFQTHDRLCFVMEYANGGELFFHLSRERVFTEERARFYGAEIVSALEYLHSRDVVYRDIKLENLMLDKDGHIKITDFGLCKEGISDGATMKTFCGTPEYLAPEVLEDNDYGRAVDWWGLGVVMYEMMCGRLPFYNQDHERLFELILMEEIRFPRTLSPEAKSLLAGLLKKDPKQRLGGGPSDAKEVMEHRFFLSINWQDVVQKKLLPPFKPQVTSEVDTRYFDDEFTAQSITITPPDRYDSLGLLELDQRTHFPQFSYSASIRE
PKD1, sequence (Q15139 whole entry): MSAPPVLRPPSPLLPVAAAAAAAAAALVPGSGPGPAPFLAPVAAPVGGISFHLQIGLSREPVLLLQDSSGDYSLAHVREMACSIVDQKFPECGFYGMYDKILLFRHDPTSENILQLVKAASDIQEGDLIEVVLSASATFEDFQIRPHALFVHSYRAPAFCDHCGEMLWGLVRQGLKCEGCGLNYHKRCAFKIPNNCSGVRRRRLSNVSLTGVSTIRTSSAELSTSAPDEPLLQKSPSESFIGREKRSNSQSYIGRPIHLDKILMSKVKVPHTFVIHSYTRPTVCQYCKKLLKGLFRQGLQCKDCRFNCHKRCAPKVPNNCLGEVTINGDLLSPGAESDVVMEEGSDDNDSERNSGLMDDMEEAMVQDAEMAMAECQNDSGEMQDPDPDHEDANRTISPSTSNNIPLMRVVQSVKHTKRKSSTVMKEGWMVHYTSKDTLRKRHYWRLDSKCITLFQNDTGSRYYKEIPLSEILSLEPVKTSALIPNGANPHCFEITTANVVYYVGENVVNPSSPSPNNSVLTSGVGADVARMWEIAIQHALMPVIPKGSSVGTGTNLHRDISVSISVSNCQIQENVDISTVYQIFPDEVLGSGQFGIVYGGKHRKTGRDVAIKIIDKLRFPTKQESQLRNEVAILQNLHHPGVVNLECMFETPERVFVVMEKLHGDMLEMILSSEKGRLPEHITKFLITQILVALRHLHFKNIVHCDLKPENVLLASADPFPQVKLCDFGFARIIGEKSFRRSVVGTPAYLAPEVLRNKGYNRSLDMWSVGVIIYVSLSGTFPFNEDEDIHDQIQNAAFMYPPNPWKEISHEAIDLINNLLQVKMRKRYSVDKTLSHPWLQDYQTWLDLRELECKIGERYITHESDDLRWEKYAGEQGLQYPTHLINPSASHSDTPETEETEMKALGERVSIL
TBK1, sequence (Q9UHD2 whole entry): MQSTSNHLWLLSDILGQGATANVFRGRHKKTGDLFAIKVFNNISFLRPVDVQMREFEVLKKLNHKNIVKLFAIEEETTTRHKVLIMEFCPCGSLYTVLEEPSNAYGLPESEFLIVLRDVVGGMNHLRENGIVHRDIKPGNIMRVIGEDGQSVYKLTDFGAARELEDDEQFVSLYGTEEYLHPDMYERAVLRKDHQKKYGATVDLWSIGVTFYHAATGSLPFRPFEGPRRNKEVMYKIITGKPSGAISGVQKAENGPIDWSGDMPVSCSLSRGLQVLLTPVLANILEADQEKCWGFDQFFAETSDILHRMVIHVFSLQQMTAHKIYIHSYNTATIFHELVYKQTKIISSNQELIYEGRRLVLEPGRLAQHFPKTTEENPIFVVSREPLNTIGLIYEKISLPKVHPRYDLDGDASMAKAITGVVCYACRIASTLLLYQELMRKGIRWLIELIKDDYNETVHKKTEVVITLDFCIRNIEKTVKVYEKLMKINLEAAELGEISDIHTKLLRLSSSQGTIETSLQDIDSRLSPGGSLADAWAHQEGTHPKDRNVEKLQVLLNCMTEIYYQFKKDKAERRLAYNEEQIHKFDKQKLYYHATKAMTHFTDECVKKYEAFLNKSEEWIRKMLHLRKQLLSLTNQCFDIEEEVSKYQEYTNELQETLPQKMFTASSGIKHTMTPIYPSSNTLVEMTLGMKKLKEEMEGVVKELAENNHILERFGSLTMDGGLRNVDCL
p38g MAPK, sequence (P53778 whole entry): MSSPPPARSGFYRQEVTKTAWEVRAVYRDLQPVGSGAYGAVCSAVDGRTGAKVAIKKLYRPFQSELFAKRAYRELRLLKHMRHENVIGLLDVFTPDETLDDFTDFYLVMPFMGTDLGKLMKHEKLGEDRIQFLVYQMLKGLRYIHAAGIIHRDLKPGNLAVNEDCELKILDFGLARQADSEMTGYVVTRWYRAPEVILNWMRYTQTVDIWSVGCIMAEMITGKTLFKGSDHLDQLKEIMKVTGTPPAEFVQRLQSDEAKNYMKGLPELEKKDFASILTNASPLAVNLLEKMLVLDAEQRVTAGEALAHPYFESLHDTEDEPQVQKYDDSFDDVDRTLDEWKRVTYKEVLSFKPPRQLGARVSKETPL
SmMLCK, sequence (Q15746 923-1914): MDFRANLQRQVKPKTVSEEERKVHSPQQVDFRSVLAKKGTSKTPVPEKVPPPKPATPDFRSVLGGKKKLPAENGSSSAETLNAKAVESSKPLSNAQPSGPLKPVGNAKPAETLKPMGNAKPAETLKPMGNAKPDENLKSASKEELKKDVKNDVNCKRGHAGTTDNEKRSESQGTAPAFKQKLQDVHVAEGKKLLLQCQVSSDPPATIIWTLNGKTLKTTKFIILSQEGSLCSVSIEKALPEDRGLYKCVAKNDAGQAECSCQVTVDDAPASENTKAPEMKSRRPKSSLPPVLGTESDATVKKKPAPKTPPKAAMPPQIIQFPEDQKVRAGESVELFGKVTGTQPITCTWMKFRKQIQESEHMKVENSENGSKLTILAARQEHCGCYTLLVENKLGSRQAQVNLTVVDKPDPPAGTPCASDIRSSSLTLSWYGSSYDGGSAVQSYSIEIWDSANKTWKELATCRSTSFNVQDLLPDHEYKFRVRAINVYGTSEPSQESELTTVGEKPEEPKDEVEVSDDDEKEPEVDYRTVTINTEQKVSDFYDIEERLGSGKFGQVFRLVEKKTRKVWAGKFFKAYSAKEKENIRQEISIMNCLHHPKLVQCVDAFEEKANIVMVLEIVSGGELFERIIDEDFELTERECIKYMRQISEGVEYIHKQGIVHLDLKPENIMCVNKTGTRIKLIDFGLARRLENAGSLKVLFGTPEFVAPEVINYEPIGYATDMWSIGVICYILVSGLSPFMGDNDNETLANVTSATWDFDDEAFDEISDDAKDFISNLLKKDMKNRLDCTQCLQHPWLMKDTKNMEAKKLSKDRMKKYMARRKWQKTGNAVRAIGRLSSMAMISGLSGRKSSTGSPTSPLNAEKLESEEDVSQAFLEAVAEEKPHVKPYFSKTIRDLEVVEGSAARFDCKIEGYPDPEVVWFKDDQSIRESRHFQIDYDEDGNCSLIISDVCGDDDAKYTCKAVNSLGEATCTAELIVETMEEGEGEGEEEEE
PLK1 (Okadaic Acid), sequence (P53350 whole entry): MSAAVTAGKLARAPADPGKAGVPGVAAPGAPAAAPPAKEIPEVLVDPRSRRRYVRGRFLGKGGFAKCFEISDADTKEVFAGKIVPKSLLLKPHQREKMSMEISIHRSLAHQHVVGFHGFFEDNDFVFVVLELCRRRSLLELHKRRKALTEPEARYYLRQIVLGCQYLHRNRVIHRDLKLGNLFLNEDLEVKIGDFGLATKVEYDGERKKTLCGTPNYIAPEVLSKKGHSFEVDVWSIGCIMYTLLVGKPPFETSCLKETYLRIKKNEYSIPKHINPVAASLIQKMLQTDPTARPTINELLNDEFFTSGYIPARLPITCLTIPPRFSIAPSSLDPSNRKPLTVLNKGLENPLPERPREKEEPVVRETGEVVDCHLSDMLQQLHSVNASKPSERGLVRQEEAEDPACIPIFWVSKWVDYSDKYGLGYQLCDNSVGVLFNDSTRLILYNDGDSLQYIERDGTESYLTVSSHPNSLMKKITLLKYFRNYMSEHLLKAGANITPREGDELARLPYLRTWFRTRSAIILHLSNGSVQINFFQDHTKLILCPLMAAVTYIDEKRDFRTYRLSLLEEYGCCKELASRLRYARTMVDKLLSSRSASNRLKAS
ERK1, sequence (P27361 whole entry): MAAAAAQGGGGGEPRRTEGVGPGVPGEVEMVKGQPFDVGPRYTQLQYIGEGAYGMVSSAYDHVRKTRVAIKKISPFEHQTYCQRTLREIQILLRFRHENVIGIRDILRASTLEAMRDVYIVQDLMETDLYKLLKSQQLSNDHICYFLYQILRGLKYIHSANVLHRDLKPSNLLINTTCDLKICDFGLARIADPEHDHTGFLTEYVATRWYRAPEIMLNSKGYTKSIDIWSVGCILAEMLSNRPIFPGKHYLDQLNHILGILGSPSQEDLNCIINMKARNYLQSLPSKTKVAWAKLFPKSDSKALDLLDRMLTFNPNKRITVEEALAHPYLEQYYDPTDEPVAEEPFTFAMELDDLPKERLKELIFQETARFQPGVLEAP

On to `COc1cc(C2=C(c3c[nH]c4ccccc34)C(=O)NC2=O)cc(OC)c1OC` [Compound 1, 3-(1H-Indol-3-yl)-4-(3,4,5-trimethoxyphenyl)-1H-pyrrole-2,5-dione], for which the remaining activity at 0.1 µM at SmMLCK is 60%; at PLK1 (Okadaic Acid) it was 85%; on Src, 81%; at TBK1 it was 87%; at CSK, 138%; at CK2, 94%. Besides, the remaining activity at 0.1 µM at GSK3b amounted to 21%; on BTK, 93%; at ERK1 it was 100%; on p38g MAPK, 91%; at BRSK2, 94%; on PKBb, 98%. The remaining activity at 0.1 µM on PKD1 is 100%; at PAK4 it was 75%; at SYK, 85%. The GI50 in the assay on PC-3 cells (setting [1]) was found to be 6400 nM; in the assay on PC-3 cells (setting [2]) it was 2900 nM. Further, it took 5 nM to reach half-maximal inhibition against VEGFR-2 (IC50).

In the case of `COc1cc2c3c(c4c5ccccc5[nH]c4c2c(OC)c1OC)C(=O)NC3=O` [Compound 3, 5,6,7-Trimethoxybenzo[a]pyrrolo[3,4-c]carbazole-1,3(2H,8H)-dione], the remaining activity at 0.1 µM on SmMLCK was determined as 30%; at PLK1 (Okadaic Acid) it was 83%; on Src, 86%; on TBK1 it was 85%; at CSK, 99%; on CK2, 91%. The remaining activity at 0.1 µM at GSK3b amounted to 5%; on BTK, 90%; on ERK1, 91%; at p38g MAPK it was 86%; at BRSK2, 66%; on PKBb it was 91%. Also, the remaining activity at 0.1 µM on PKD1 worked out at 60%; on PAK4 it was 55%; at SYK, 86%. Besides, the 50% growth inhibitory concentration (GI50) in the assay on PC-3 cells (setting [1]) came out at 200 nM; with PC-3 cells (setting [2]) it was 380 nM; with PC-3 cells (irradiated at 365 nm, 5 min, 1.1 kW/m^2, cell growth after 48 h, read-out: GI50 after Irradiation) it was 400 nM. The compound also had an IC50 against VEGFR-2 of 152 nM.
